Results on 20 compounds are retold here after US10364256B2 (GlaxoSmithKline Intellectual Property Development Limited, priority 2015, dated 2019).

The target of experiment [1] is T1, Keap1 Kelch domain (321-609) / TAMRA-labeled 16mer NRF2 peptide (ETGE motif) (Homo sapiens, UniProt Q14145).
T1 construct: the Kelch domain (321-609) of Keap1 is used
Nature of the experiment: NRF2-Keap1 FP Assay (Keap1 Kelch fluorescence polarization). Conditions: 20 nM Keap1 (321-609), 8 nM Tamra labeled peptide. In kind it is binding. An outline of the steps:
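Compound dilutions (3-fold) were incubated 1 hr at room temperature with 20 nM Keap1 Kelch (321-609) and 8 nM TAMRA-labeled ETGE 16mer peptide. Buffer was 50 mM Tris pH 8.0, 100 mM NaCl, 5 mM MgCl2, 1 mM DTT, 2 mM CHAPS, 0.005% BSA. Fluorescence polarization (mP) was normalized to controls and fitted with a four-parameter equation to give pIC50.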
A general note: Fluorescence polarisation rises when a labelled molecule tumbles more slowly, as on binding a larger partner.

For experiment [2], the system named is NQO1 specific enzyme activity in BEAS-2B cells (marker for NRF2 activation). Nature of the experiment: BEAS-2B NQO1 MTT Assay. Conditions: compound incubated 48 hours, read-out: EC50 (NQO1 specific enzyme activity induction). The format is cell-based. An outline of the steps: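 BEAS-2B cells treated with compound for 48 h at 37 °C, then lysed; NQO1 activity in lysates measured kinetically by MTT reduction at A570 over 30 min. pEC50 from 3-parameter fit of ΔOD/min versus log concentration; lysate also taken for Cell Titer Glo.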

Experiment [3] concerns the target T2, full length Keap1 protein / full length NRF2 protein (Homo sapiens, UniProt Q14145).
T2 construct: full length NRF2 protein and full length Keap1 protein (Keap1 exists a dimer) are used; His
In words: NRF2-Keap1 TR-FRET Low Protein Assay. The format is binding. Conditions: 1.25 nM Keap1 FlagHis and 2.5 nM biotin-NRF2 added. The essentials:
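Flag-tagged full-length Keap1 was preincubated with compound (3-fold series) for 2.25 h at 37 °C in Tris pH 8.0/MgCl2/NaCl/BSA/DTT/CHAPS. Biotin-Avi-NRF2 (added at 2.5 nM) was then bound for 1.25 h at 4 °C. Eu-streptavidin/anti-Flag-APC TR-FRET (665/615 nm) was read after 1 h at RT, and pIC50 came from a four-parameter fit.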
On the technique in general: Time-resolved FRET reads energy transfer from a long-lived donor to a nearby acceptor.

Read-outs that look alike come from different tables or passages of the source. Bounds are passed on as bounds.

T1 sequence (Q14145 321-609): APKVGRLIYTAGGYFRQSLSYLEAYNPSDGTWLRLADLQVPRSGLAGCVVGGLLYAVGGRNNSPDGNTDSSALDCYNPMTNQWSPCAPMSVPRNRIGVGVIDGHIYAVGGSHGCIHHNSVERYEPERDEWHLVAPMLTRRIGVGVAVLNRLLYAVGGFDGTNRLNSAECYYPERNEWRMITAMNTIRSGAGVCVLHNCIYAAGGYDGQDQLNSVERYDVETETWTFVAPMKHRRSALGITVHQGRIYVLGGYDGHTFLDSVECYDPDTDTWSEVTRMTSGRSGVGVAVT
T2 sequence (Q14145 whole entry): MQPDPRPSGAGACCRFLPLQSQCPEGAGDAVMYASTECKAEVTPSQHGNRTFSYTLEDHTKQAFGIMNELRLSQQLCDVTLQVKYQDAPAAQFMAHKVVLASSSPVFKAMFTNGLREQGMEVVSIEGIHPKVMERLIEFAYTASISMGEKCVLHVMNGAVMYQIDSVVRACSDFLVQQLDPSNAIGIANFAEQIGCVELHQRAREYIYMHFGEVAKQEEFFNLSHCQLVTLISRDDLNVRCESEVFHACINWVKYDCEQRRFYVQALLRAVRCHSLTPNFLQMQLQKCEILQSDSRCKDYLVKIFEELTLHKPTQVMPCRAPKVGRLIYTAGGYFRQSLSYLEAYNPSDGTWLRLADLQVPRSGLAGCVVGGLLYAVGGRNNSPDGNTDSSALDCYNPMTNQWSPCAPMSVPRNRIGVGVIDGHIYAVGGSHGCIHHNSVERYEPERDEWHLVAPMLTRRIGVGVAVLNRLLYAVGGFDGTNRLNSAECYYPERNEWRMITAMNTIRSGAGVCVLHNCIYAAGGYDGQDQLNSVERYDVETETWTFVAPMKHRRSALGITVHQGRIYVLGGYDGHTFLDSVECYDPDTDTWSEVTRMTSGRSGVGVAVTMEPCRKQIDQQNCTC

Broadly, the IC50 is the concentration that gives 50% inhibition. A higher IC50 goes with lower potency. A word on the EC50: it is the concentration giving half of the maximal effect. `Cn1cc([C@@H]2C[C@H]2c2c(C(=O)O)cnn2-c2cccc(-c3cccc(CN4Cc5ccccc5CC(C)(C)C4)c3)c2)nn1` (racemic) [Example 126, 1-(3′-((4,4-dimethyl-4,5-dihydro-1H-benzo[c]azepin-2(3H)-yl)methyl)-[1,1′-biphenyl]-3-yl)-5-((1,2-trans)-2-(1-methyl-1H-1,2,3-triazol-4-yl)cyclopropyl)-1H-pyrazole-4-carboxylic Acid]: the IC50 in experiment [1] and in experiment [3] was 100 to 1000 nM in each case. In addition, the EC50 in experiment [2] (Homo sapiens) is 100 to 1000 nM.
On to `CC[C@@H]1CN(Cc2cccc(-c3cccc(-n4ncc(C(=O)O)c4[C@H]4C[C@@H]4c4cn(C(C)C)nn4)c3)c2)Cc2ccccc2O1` (racemic) [Example 128, 1-(3′-(((R)-2-ethyl-2,3-dihydrobenzo[f][1,4]oxazepin-4(5H)-yl)methyl)-[1,1′-biphenyl]-3-yl)-5-((1,2-trans)-2-(1-isopropyl-1H-1,2,3-triazol-4-yl)cyclopropyl)-1H-pyrazole-4-carboxylic Acid], for which the IC50 in experiment [1] is 10 to 100 nM; in experiment [3] it was less than 10 nM. Moreover, in experiment [2] (Homo sapiens), the EC50 lay within 100 to 1000 nM.
For `CC[C@@H]1CN(Cc2cccc(-c3cccc(-n4ncc(C(=O)O)c4[C@@H]4C[C@H]4c4cn(C)nn4)c3)c2)S(=O)(=O)c2cccnc2O1` (racemic) [Example 138, 1-(3′-(((R)-4-ethyl-1,1-dioxido-3,4-dihydro-2H-pyrido[2,3-b][1,4,5]oxathiazepin-2-yl)methyl)-[1,1′-biphenyl]-3-yl)-5-((1,2-trans)-2-(1-methyl-1H-1,2,3-triazol-4-yl)cyclopropyl)-1H-pyrazole-4-carboxylic acid], in that order: 10 to 100 nM, less than 10 nM and 1000 to 10000 nM.
For the compound `CN1CCN(Cc2cccc(-c3cccc(-n4ncc(C(=O)O)c4[C@@H]4C[C@H]4c4cn(C)nn4)c3)c2)S(=O)(=O)c2ccccc21` (racemic) [Example 140, 1-(3′-((5-methyl-1,1-dioxido-4,5-dihydrobenzo[f][1,2,5]thiadiazepin-2(3H)-yl)methyl)-[1,1′-biphenyl]-3-yl)-5-((1,2- trans)-2-(1-methyl-1H-1,2,3-triazol-4-yl)cyclopropyl)-1H-pyrazole-4-carboxylic acid], the IC50 in experiment [1] and in experiment [3] was 10 to 100 nM in each case. In addition, in experiment [2] (Homo sapiens), the EC50 was 1000 to 10000 nM.
For `Cn1cc([C@@H]2C[C@H]2c2c(C(=O)O)cnn2-c2cccc(-c3cccc(S(=O)(=O)N4Cc5ccccc5OC(C)(C)C4)c3)c2)nn1` (racemic) [Example 141, 1-(3′-((2,2-Dimethyl-2,3-dihydrobenzo[f][1,4]oxazepin-4(5H)-yl)sulfonyl)-[1,1′-biphenyl]-3-yl)-5-((1,2-trans)-2-(1-methyl-1H-1,2,3-triazol-4-yl)cyclopropyl)-1H-pyrazole-4-carboxylic Acid], the IC50 in experiment [1] and in experiment [3] was 10 to 100 nM each time. For the same compound, in experiment [2] (Homo sapiens), the EC50 lay in the range of 100 to 1000 nM.
For the compound `CCCC1CCCCN1S(=O)(=O)c1cccc(-c2cccc(-n3ncc(C(=O)O)c3[C@@H]3C[C@H]3c3cn(C)nn3)c2)c1` (mixture of isomers) [Example 142, 5-((1,2-trans)-2-(1-Methyl-1H-1,2,3-triazol-4-yl)cyclopropyl)-1-(3′-((2-propylpiperidin-1-yl)sulfonyl)-[1,1′-biphenyl]-3-yl)-1H-pyrazole-4-carboxylic Acid], the IC50 in experiment [1] and in experiment [3] was 10 to 100 nM throughout. Further, the EC50 in experiment [2] (Homo sapiens) is 100 to 1000 nM.
For the compound `Cn1cc([C@@H]2C[C@H]2c2c(C(=O)O)cnn2-c2cccc(-c3cccc(S(=O)(=O)N4CCCCC4)c3)c2)nn1` (racemic) [Example 143, 5-((1,2-trans)-2-(1-Methyl-1H-1,2,3-triazol-4-yl)cyclopropyl)-1-(3′-(piperidin-1-ylsulfonyl)-[1,1′-biphenyl]-3-yl)-1H-pyrazole-4-carboxylic Acid], the IC50 in experiment [1] and in experiment [3] was 10 to 100 nM each time. Further, in experiment [2] (Homo sapiens), the EC50 was in the range of 100 to 1000 nM.
For `CC(Oc1cccc(-c2cccc(-n3ncc(C(=O)O)c3[C@H]3C[C@@H]3c3cn(C)nn3)c2)c1)[C@H]1CC[C@H](C(F)(F)F)CC1` (mixture of isomers) [Example 180, 5-((1,2-trans)-2-(1-Methyl-1H-1,2,3-triazol-4-yl)cyclopropyl)-1-(3′-((R)-1-((1R,4R)-4-(trifluoromethyl)cyclohexyl)ethoxy)-[1,1′-biphenyl]-3-yl)-1H-pyrazole-4-carboxylic acid], the IC50 was in the range of 100 to 1000 nM in experiment [1] and 10 to 100 nM in experiment [3]. Further, the EC50 in experiment [2] (Homo sapiens) lay within 1 to 10 nM.
In the same order, the values of `CC(Oc1cccc(-c2cc(O)cc(-n3ncc(C(=O)O)c3[C@H]3C[C@@H]3c3cn(C)nn3)c2)c1)C1CCCCC1` (mixture of isomers) [Example 194] are 100 to 1000 nM, 10 to 100 nM and 100 to 1000 nM.
In the same order, the values of `CC(Oc1cccc(-c2cccc(-n3ncc(C(=O)O)c3[C@H]3C[C@@H]3c3cn(C(C)C)nn3)c2)c1)C1CCCCC1` (mixture of isomers) [Example 195, 1-(3′-(1-cyclohexylethoxy)-[1,1′-biphenyl]-3-yl)-5-((1,2-trans)-2-(1-isopropyl-1H-1,2,3-triazol-4-yl)cyclopropyl)-1H-pyrazole-4-carboxylic acid] are 100 to 1000 nM, 10 to 100 nM and 10 to 100 nM.
Take `CCC[C@@H]1CCCCN1C(=O)c1cccc(-c2cccc(-n3ncc(C(=O)O)c3[C@H]3C[C@@H]3c3cn(C(C)C)nn3)c2)c1` (racemic) [Example 200]: the IC50 in experiment [1] is 10 to 100 nM; in experiment [3], less than 10 nM. For the same compound, in experiment [2] (Homo sapiens, BEAS-2B, 48 h), the EC50 fell in the range of 100 to 1000 nM.
Turning to `CC(Oc1ccc(-c2cccc(-n3ncc(C(=O)O)c3[C@H]3C[C@@H]3c3cn(C)nn3)c2)cc1)C1CCCCC1` (mixture of isomers) [Example 241, 1-(4′-(1-Cyclohexylethoxy)-[1,1′-biphenyl]-3-yl)-5-((1,2-trans)-2-(1-methyl-1H-1,2,3-triazol-4-yl)cyclopropyl)-1H-pyrazole-4-carboxylic Acid], the IC50 in experiment [1] is greater than 10000 nM; in experiment [3] it was greater than 100000 nM. Also, in experiment [2] (Homo sapiens), the EC50 lay in the range of 1000 to 10000 nM.
For `CCC(Oc1cccc(-c2cccc(-n3ncc(C(=O)O)c3[C@H]3C[C@@H]3c3cn(C)nn3)c2)c1)C1CCCCC1` (mixture of isomers) [Example 242], in that order: 10 to 100 nM, 10 to 100 nM and 10 to 100 nM.
For `Cn1cc([C@@H]2C[C@H]2c2c(C(=O)O)cnn2-c2cccc(-c3cccc(CN4CCOc5ccccc5C4)c3)c2)nn1` (racemic) [Example 256, 1-(3′-((2,3-Dihydrobenzo[f][1,4]oxazepin-4(5H)-yl)methyl)-[1,1′-biphenyl]-3-yl)-5-(trans-2-(1-methyl-1H-1,2,3-triazol-4-yl)cyclopropyl)-1H-pyrazole-4-carboxylic Acid], in that order: 10 to 100 nM, 10 to 100 nM and 1000 to 10000 nM.
For `CC(Cc1cccc(-c2cccc(-n3ncc(C(=O)O)c3[C@@H]3C[C@H]3c3cn(C)nn3)c2)c1)C1CCCCC1` (single isomer, unassigned) [Example 116e, 1-(3′-((R) or (S)-2-Cyclohexylpropyl)-[1,1′-biphenyl]-3-yl)-5-((1R,2R)-2-(1-methyl-1H-1,2,3-triazol-4-yl)cyclopropyl)-1H-pyrazole-4-carboxylic Acid], in that order: 10 to 100 nM, 10 to 100 nM and 1 to 10 nM.
Take `CC[C@H]1c2ccccc2OCCN1Cc1cccc(-c2cccc(-n3ncc(C(=O)O)c3[C@@H]3C[C@H]3c3cn(C)nn3)c2)c1` (single isomer, unassigned; isomer 1) [Example 122]: the concentration for half-maximal inhibition (IC50) is 10 to 100 nM in experiment [1] and less than 10 nM in experiment [3]. Also, the EC50 in experiment [2] lay in the range of 10 to 100 nM.
In the case of `CC[C@H]1c2ccccc2OC(C)(C)CN1Cc1cccc(-c2cccc(-n3ncc(C(=O)O)c3[C@@H]3C[C@H]3c3cn(C)nn3)c2)c1` (single isomer, unassigned; isomer 1) [Example 124], the IC50 in experiment [1] was 10 to 100 nM; in experiment [3] it was less than 10 nM. Further, the EC50 in experiment [2] (Homo sapiens) lay in the range of 10 to 100 nM.
Regarding `C[C@H]1Cc2ccc(Br)cc2S(=O)(=O)N(Cc2cccc(-c3cccc(-n4ncc(C(=O)O)c4[C@@H]4C[C@H]4c4cn(C)nn4)c3)c2)C1` (single isomer, unassigned; isomer 1) [Example 134], the IC50 is 10 to 100 nM in experiment [1] and less than 10 nM in experiment [3]. The EC50 in experiment [2] (Homo sapiens) lay within 100 to 1000 nM.
In the same order, the values of `CC[C@H]1c2ccccc2OCCN1Cc1cccc(-c2cccc(-n3ncc(C(=O)O)c3[C@@H]3C[C@H]3c3cn(C)nn3)c2)c1` (single isomer, unassigned; isomer 2) [Example 121] are 1 to 10 nM, less than 10 nM and 10 to 100 nM.
For `CC[C@@H]1c2ccccc2OC(C)(C)CN1Cc1cccc(-c2cccc(-n3ncc(C(=O)O)c3[C@@H]3C[C@H]3c3cn(C)nn3)c2)c1` (single isomer, unassigned; isomer 2) [Example 125], in that order: 10 to 100 nM, less than 10 nM and 1 to 10 nM.
